The values below are quoted from earlier work in patent publication US12552760B2, “Compounds for increasing the nicotinamide adenine dinucleotide in a subject and methods of use thereof” (The Board of Trustees of the University of Illinois, priority 2022, dated 2026).

Data set [1] has as its system HT22. To be noted: 0.1 mM & 1.0 mM, 24 h; Koh, P. 2013; cited from earlier work.
The subject of data set [2] is Sprague-Dawley rats. The conditions noted are these: 500 mg/kg (i.p.) 2 h after MCAO for 22 hrs; Koh, P. 2013; cited from earlier work.
Data set [3] has as its system 3xTgAD mice. The conditions noted are these: 40 mg/kg/d (p.o.) 8 months; Liu, D. et al. 2013; cited from earlier work.
Data set [4] relates to cultured primary neurons. The conditions noted are these: 2-4 mM, 6 h; Liu, D. et al. 2013; cited from earlier work.
In data set [5] the test system is Wistar rats. The conditions noted are these: 100, 300, 500 mg/kg (i.p.) 8 days; Sidhu, A. et al. 2018; cited from earlier work.
Data set [6] relates to Brown Norway rats and C57BL/6 mice. To be noted: 200-400 mg/kg/d (p.o., rats), 500 mg/kg/d (p.o., mice), various treatment times; Tribble J. R. et al. 2021; cited from earlier work.
Data set [7] has as its system C57BL/6 mice. To be noted: 125, 250, 500 mg/kg (i.p.) 1 day (acute), 5 days (sub-acute); Anderson, D. W. et al. 2008; cited from earlier work.

Consider `NC(=O)c1cccnc1` [NAM, nicotinamide], for which, in data set [1], the Neuroprotection entry is given as “Neuroprotection” and the “hippocalcin (crucial neuronal protein) depletion” value is “Prevented”. In addition, in data set [2], the Decreased infarct volume entry is on record as “volume by 60%” and the hippocalcin depletion entry is given as “Prevented”. In addition, in data set [3], the “Aβ and p-Tau” value was “Decreased Aβ”; the cognitive decline result is given as “Ameliorated”. Further, in data set [4], the Neuroprotection entry was “Neuroprotection”. Further, in data set [5], the Neuroprotection entry is “Neuroprotection”, the motor function result is listed as “Improved motor” and the oxidative stress entry is recorded as “Prevented”. Besides, in data set [6], the Retinal ganglion neuroprotection entry was “neuroprotection”, the metabolic disruption result was “Prevented” and the mitochondrial function entry is “Improved”. Further, the “dopamine concentration in both paradigms” value in data set [7] is given as “Recovered”.
